The nature of data set [1]: LC-MS/MS of 5-MeO-DMT, bufotenine and 5-MIAA in urine, serum and breastmilk of lactating PPD patient; infant exposure estimates. The settings on record: for Breastmilk concentration / Serum concentration / Urine concentration: second patient. The source says: When determining the potential impact of maternal drug administration on a breastfed infant, it is standard practice to calculate the Relative Infant Dose (RID) (Bennett, P. N., and L. J. Notarianni. “Risk from drugs in breast milk: an analysis by relative dose.” Br J Clin Pharmacol 42.5 (1996): P673-4). The RID is the dosage (in μg/kg/day) the infant is exposed to by the intake of breast milk, divided by the dosage (in μg/kg/day) the mother receives.
Using estimates for daily intake of breast milk and the number of feeds as well as the measured breast milk concentrations the exposure of the infant can be determined.
For example, a published estimate for daily intake of breast milk as a function of infant weight is 150 ml/kg/day. To model the exposure, it is assumed that an infant of 5 kg is fed three times over 24 hours, receiving 250 ml breast milk each time.
The second patient was lactating, and, per the clinical trial protocol, breastmilk samples were collected pre-dosing and at multiple timepoints after administration of the last dose. […] Similar analyses were carried out on patient serum and urine samples.

Data set [2] deals with Escherichia coli WP2 uvrA pKM101. Put plainly: Bacterial reverse mutation test. Type of data set: cell-based. The following applies: up to 5000 μg/plate; with and without S-9. Here is the method:
(§1) These conditions included treatments at concentrations up to 5000 μg/plate (the maximum recommended concentration according to current regulatory guidelines), in the absence and in the presence of a rat liver metabolic activation system (S-9).

For data set [3], the system named is Salmonella typhimurium TA98, TA100, TA1535 and TA1537. Put plainly: Bacterial reverse mutation test. It counts as cell-based. The settings on record: up to 5000 μg/plate; with and without S-9. Here is the method:
as §1

The mark [4] stands for this setting: female, human, breast milk, inhaled.

The structures appear in SMILES notation.

For `COc1ccc2[nH]cc(CCN(C)C)c2c1` [5-MeO-DMT], the “Daily Infant Dosage (DID) per kg” value in data set [1] (5 kg infant, three feeds of 250 ml) is 0.0001385 mg/kg/day. Moreover, the concentration at 1 h is 2.17 ng/mL in data set [1] (setting [4]) and 0.133 ng/mL in data set [1] (female, human, serum, inhaled). The concentration at 2.5 h in data set [1] (setting [4]) is 0.561 ng/mL. Moreover, the concentration at 8.5 h in data set [1] (setting [4]) is 0.0421 ng/mL. For the same compound, the Breastmilk concentration is 2167 pg/mL in data set [1] (1.0 hrs after last dose); “did not detect and BLG” in data set [1] (24.0 hrs after last dose); “BLQ (Below limit of quantification. The lower limit of quantification is 25 pg/ml for both 5-MeO-DMT and 5-MIAA in both serum and breastmilk; it is 25 pg/ml in urine for 5-MeO-DMT and 250 pg/ml for 5-MIAA in urine.)” in data set [1] (120.0 hrs after last dose); “BLQ (Below limit of quantification. The lower limit of quantification is 25 pg/ml for both 5-MeO-DMT and 5-MIAA in both serum and breastmilk; it is 25 pg/ml in urine for 5-MeO-DMT and 250 pg/ml for 5-MIAA in urine.)” in data set [1] (−24.0 hrs (pre-dosing)). The Serum concentration result was “BLQ (Below limit of quantification. The lower limit of quantification is 25 pg/ml for both 5-MeO-DMT and 5-MIAA in both serum and breastmilk; it is 25 pg/ml in urine for 5-MeO-DMT and 250 pg/ml for 5-MIAA in urine.)” in data set [1] (2.5 hrs after last dose); “BLQ (Below limit of quantification. The lower limit of quantification is 25 pg/ml for both 5-MeO-DMT and 5-MIAA in both serum and breastmilk; it is 25 pg/ml in urine for 5-MeO-DMT and 250 pg/ml for 5-MIAA in urine.)” in data set [1] (24.0 hrs after last dose); “BLQ (Below limit of quantification. The lower limit of quantification is 25 pg/ml for both 5-MeO-DMT and 5-MIAA in both serum and breastmilk; it is 25 pg/ml in urine for 5-MeO-DMT and 250 pg/ml for 5-MIAA in urine.)” in data set [1] (120.0 hrs after last dose); “BLQ (Below limit of quantification. The lower limit of quantification is 25 pg/ml for both 5-MeO-DMT and 5-MIAA in both serum and breastmilk; it is 25 pg/ml in urine for 5-MeO-DMT and 250 pg/ml for 5-MIAA in urine.)” in data set [1] (−24.0 hrs (pre-dosing)). The Urine concentration result in data set [1] (8.5 hrs after last dose) is “BLQ (Below limit of quantification. The lower limit of quantification is 25 pg/ml for both 5-MeO-DMT and 5-MIAA in both serum and breastmilk; it is 25 pg/ml in urine for 5-MeO-DMT and 250 pg/ml for 5-MIAA in urine.)”; in data set [1] (24.0 hrs after last dose), “BLQ (Below limit of quantification. The lower limit of quantification is 25 pg/ml for both 5-MeO-DMT and 5-MIAA in both serum and breastmilk; it is 25 pg/ml in urine for 5-MeO-DMT and 250 pg/ml for 5-MIAA in urine.)”; in data set [1] (120.0 hrs after last dose), “BLQ (Below limit of quantification. The lower limit of quantification is 25 pg/ml for both 5-MeO-DMT and 5-MIAA in both serum and breastmilk; it is 25 pg/ml in urine for 5-MeO-DMT and 250 pg/ml for 5-MIAA in urine.)”; in data set [1] (−24.0 hrs (pre-dosing)) it was “BLQ (Below limit of quantification. The lower limit of quantification is 25 pg/ml for both 5-MeO-DMT and 5-MIAA in both serum and breastmilk; it is 25 pg/ml in urine for 5-MeO-DMT and 250 pg/ml for 5-MIAA in urine.)”. Also, the Mutation induction result in data set [2] and in data set [3] was “did not induce mutation” each time.
